# In patent publication US20120225054A1, “USE OF LEGUME EXTRACTS FOR INDUCING AND ENHANCING AUTOPHAGY AND APOPTOSIS AND FOR PREVENTING AND/OR TREATING CANCERS” (HERBAL BON BIOTECH INC., priority 2011, published 2012):
# Tests used:
# [1] = tested on: murine hepatoma ML-1 cells; assay: Flow cytometric analysis of apoptotic cells with autophagy inhibitor, ML-1; format: cell-based; settings: 10 mM 3-MA pretreatment 2 h, SC-1 265 μg/ml
# Protocol: Murine ML-1 cells obtained from Dr. Huan-Yao Lei (Department of Microbiology and Immunology, Medical College, National Cheng Kung University, Tainan, Taiwan) were cultured in complete Dulbecco's modified Eagle medium (DMEM; GIBCO BRL, Grand Island, N.Y.) containing 10% fetal bovine serum (GIBCO BRL), 2 mM glutamine (Sigma, St. Louis, Mo.), 100 U/ml penicillin (Sigma), and 100 μg/ml streptomycin (Sigma) at 37° C. in a 5% CO2 humidified atmosphere.
# (§1) Cells (2×10^5) grown in 6-well plates were pretreated with or without 10 mM of autophagy inhibitor 3-methyladenine (3-MA; Sigma, St. Louis, Mo.) for 2 h prior to the addition of SC-1 (265 μg/ml). The cells were harvested, centrifuged at 800g for 10 min at 4° C., and resuspended in HBS containing 40 μg/ml of propidium iodide and […] RNase A for 30 min at 37° C. in the dark. Measurement of apoptotic cells was performed using a FACScan flow cytometer (Becton Dickison, Mountain View, Calif., USA).
# To confirm the importance of autophagy in the proceeding of apoptosis, autophagy inhibitor 3-MA was added to the cell culture and the relative portion of apoptotic cells was analyzed by flow cytometry. […] In FIG. 5B, it inhibited the fermented soybean extracts-induced apoptosis of Hep 3B cells approximately 42% at 48 h and 60% at 72 h. […]
# [2] = tested on: human HCC Hep 3B cells; assay: Flow cytometric analysis of apoptotic cells with autophagy inhibitor, Hep 3B; format: cell-based; settings: 10 mM 3-MA pretreatment 2 h, SC-1 265 μg/ml
# Protocol: as §1
# To confirm the importance of autophagy in the proceeding of apoptosis, autophagy inhibitor 3-MA was added to the cell culture and the relative portion of apoptotic cells was analyzed by flow cytometry. […] In FIG. 5B, it inhibited the fermented soybean extracts-induced apoptosis of Hep 3B cells approximately 42% at 48 h and 60% at 72 h. Therefore, it would not be surprised that the induction of apoptosis was observed only in combination with autophagy in tumors obtained from the mice received the fermented soybean extracts for a relatively long period of time (FIGS. 4A and B).
compound,measurement,setting,value
"Cn1cnc(N)c2ncnc1-2 [3-MA, 3-methyladenine]",inhibition of fermented soybean extracts-induced apoptosis,[1]; 48 h,approximately 45%
same,inhibition of fermented soybean extracts-induced apoptosis,[1]; 72 h,~52%
same,inhibition of fermented soybean extracts-induced apoptosis,[2]; 48 h,approximately 42%
same,inhibition of fermented soybean extracts-induced apoptosis,[2]; 72 h,~60%
